Columns and labels:
Type in all cases: cell-based
[1] = tested on: Proteus mirabilis; assay: MIC against Gram-negative bacteria: Proteus mirabilis; details: 5×10^5 CFU/mL
Method in brief: (§1)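 Inocula prepared by growing LB cultures at 37° C to 0.5 McFarland, centrifuging at 4000×g, and resuspending in fresh medium. Final density 5×10^5 CFU/mL per well with two-fold dilutions of purified EGF domain protein; shaking incubation at 37° C.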

[2] = tested on: Enterobacter cloacae; assay: MIC against Gram-negative bacteria: Enterobacter cloacae; details: 5×10^5 CFU/mL
Method in brief: as §1

[3] = tested on: Klebsiella pneumonia; assay: MIC against Gram-negative bacteria: Klebsiella pneumonia; details: 5×10^5 CFU/mL
Method in brief: as §1

[4] = tested on: Pseudomonas aeruginosa; assay: MIC against Gram-negative bacteria: Pseudomonas aeruginosa; details: 5×10^5 CFU/mL
Method in brief: as §1

[5] = tested on: E. coli BL21; assay: MIC against Gram-negative bacteria: E. coli BL21; details: 5×10^5 CFU/mL
Method in brief: as §1

[6] = tested on: Proteus vulgaris; assay: MIC against Gram-negative bacteria: Proteus vulgaris; details: 5×10^5 CFU/mL
Method in brief: as §1

[7] = tested on: E. coli DH5α; assay: Antibacterial activity: MIC and growth curve against E. coli DH5α in 96-well plate; details: minimal inhibitory concentration against E. coli DH5α; 96-well plate, 5×10^5 CFU/mL, 37° C., judged after 8 h
Method in brief: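 Log-phase bacteria (OD600 ~0.5) resuspended in LB at 5×10^5 CFU/mL, exposed to recombinant protein at 50, 25, 12.5 μg/mL final in triplicate, 37 °C shaking at 175 rpm. OD600 read every 30 min; MIC is lowest concentration showing no growth.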

[8] = tested on: Serratia marcescens; assay: MIC against Gram-negative bacteria: Serratia marcescens; details: 5×10^5 CFU/mL
Method in brief: as §1

[9] = tested on: Aeromonas hydrophila; assay: MIC against Gram-negative bacteria: Aeromonas hydrophila; details: 5×10^5 CFU/mL
Method in brief: as §1

[10] = tested on: Moraxella catarrhalis; assay: MIC against Gram-negative bacteria: Moraxella catarrhalis; details: 5×10^5 CFU/mL
Method in brief: as §1

[11] = tested on: Citrobacter diversus; assay: MIC against Gram-negative bacteria: Citrobacter diversus; details: 5×10^5 CFU/mL
Method in brief: as §1

[12] = 10 h cultivation at 37° C., two-fold serial dilution
[13] = P. mirabilis, 10 h cultivation at 37° C.
[14] = E. cloacae, 10 h cultivation at 37° C.
[15] = K. pneumonia, 10 h cultivation at 37° C.
[16] = P. aeruginosa, 10 h cultivation at 37° C.
[17] = E. coli BL21, 10 h cultivation at 37° C.
[18] = P. vulgaris, 10 h cultivation at 37° C.
[19] = S. marcescens, 10 h cultivation at 37° C.
[20] = A. hydrophila, 10 h cultivation at 37° C.
[21] = M. catarrhalis, 10 h cultivation at 37° C.
[22] = C. diversus, 10 h cultivation at 37° C.

Substance: PRT1101 (MKDPCFSNPCQGSATCVNTPGERSFLCKCPPGYSGTICE; listed as Homo sapiens)
- MIC P. mirabilis [1, 12]: 50 µg/mL
- MIC E. cloacae [2, 12]: 25 µg/mL
- MIC K. pneumonia [3, 12]: 12.5 µg/mL
- MIC P. aeruginosa [4, 12]: 25 µg/mL
- MIC E. coli BL21 [5, 12]: 50 µg/mL
- MIC P. vulgaris [6, 12]: 25 µg/mL
- MIC [7]: 25 µg/mL
- MIC S. marcescens [8, 12]: 12.5 µg/mL
- MIC A. hydrophila [9, 12]: 50 µg/mL
- MIC M. catarrhalis [10, 12]: 25 µg/mL
- MIC C. diversus [11, 12]: 12.5 µg/mL

Substance: PRT602 (CKCHPQGSVGSSCSRLGGQCQCKPLVVGRCCDRCSTGSYDLGHHGCHP; listed as Homo sapiens)
- MIC P. mirabilis ([1]; 96-well plate, 37° C., 10 h): 50 µg/mL
- MIC E. cloacae ([2]; 96-well plate, 37° C., 10 h): 50 µg/mL
- MIC K. pneumonia ([3]; 96-well plate, 37° C., 10 h): 12.5 µg/mL
- MIC P. aeruginosa ([4]; 96-well plate, 37° C., 10 h): 50 µg/mL
- MIC E. coli BL21 ([5]; 96-well plate, 37° C., 10 h): 12.5 µg/mL
- MIC P. vulgaris ([6]; 96-well plate, 37° C., 10 h): 25 µg/mL
- MIC [7]: 50 µg/mL
- MIC S. marcescens ([8]; 96-well plate, 37° C., 10 h): 12.5 µg/mL
- MIC A. hydrophila ([9]; 96-well plate, 37° C., 10 h): 12.5 µg/mL
- MIC M. catarrhalis ([10]; 96-well plate, 37° C., 10 h): 12.5 µg/mL
- MIC C. diversus ([11]; 96-well plate, 37° C., 10 h): 50 µg/mL

Substance: PRT1171 (NTNDCSPHPCYNSGTCVDGDNWYRCECAPGFAGPDCR; listed as Homo sapiens)
- MIC P. mirabilis [1, 12]: 12.5 µg/mL
- MIC E. cloacae [2, 12]: 12.5 µg/mL
- MIC K. pneumonia [3, 12]: 12.5 µg/mL
- MIC P. aeruginosa [4, 12]: 25 µg/mL
- MIC E. coli BL21 [5, 12]: 12.5 µg/mL
- MIC P. vulgaris [6, 12]: 50 µg/mL
- MIC [7]: 12.5 µg/mL
- MIC S. marcescens [8, 12]: 25 µg/mL
- MIC A. hydrophila [9, 12]: 12.5 µg/mL
- MIC M. catarrhalis [10, 12]: 50 µg/mL
- MIC C. diversus [11, 12]: 12.5 µg/mL

Substance: PRT16 (EKSPCQPNPCHGAAPCRVLPEGGAQCECPLGREGTFCQ; listed as Homo sapiens)
- MIC (μg/mL) P. mirabilis ([1]; Proteus mirabilis, 96-well plate, 37° C., 10 h): 50 µg/mL
- MIC (μg/mL) E. cloacae ([2]; Enterobacter cloacae, 96-well plate, 37° C., 10 h): 12.5 µg/mL
- MIC (μg/mL) K. pneumonia ([3]; Klebsiella pneumonia, 96-well plate, 37° C., 10 h): 12.5 µg/mL
- MIC (μg/mL) P. aeruginosa ([4]; Pseudomonas aeruginosa, 96-well plate, 37° C., 10 h): 25 µg/mL
- MIC (μg/mL) E. coli BL21 ([5]; E. coli BL21, 96-well plate, 37° C., 10 h): 12.5 µg/mL
- MIC (μg/mL) P. vulgaris ([6]; Proteus vulgaris, 96-well plate, 37° C., 10 h): 25 µg/mL
- MIC [7]: 12.5 µg/mL
- MIC (μg/mL) S. marcescens ([8]; Serratia marcescens, 96-well plate, 37° C., 10 h): 25 µg/mL
- MIC (μg/mL) A. hydrophila ([9]; Aeromonas hydrophila, 96-well plate, 37° C., 10 h): 50 µg/mL
- MIC (μg/mL) M. catarrhalis ([10]; Moraxella catarrhalis, 96-well plate, 37° C., 10 h): 12.5 µg/mL
- MIC (μg/mL) C. diversus ([11]; Citrobacter diversus, 96-well plate, 37° C., 10 h): 25 µg/mL

Substance: PRT259 (GGCHTDALCSYVGPGQSRCTCKLGFAGDGYQC; listed as Homo sapiens)
- MIC (μg/mL) P. mirabilis [1, 13]: 25 µg/mL
- MIC (μg/mL) E. cloacae [2, 14]: 50 µg/mL
- MIC (μg/mL) K. pneumonia [3, 15]: 12.5 µg/mL
- MIC (μg/mL) P. aeruginosa [4, 16]: 50 µg/mL
- MIC (μg/mL) E. coli BL21 [5, 17]: 25 µg/mL
- MIC (μg/mL) P. vulgaris [6, 18]: 50 µg/mL
- MIC [7]: 12.5 µg/mL
- MIC (μg/mL) S. marcescens [8, 19]: 25 µg/mL
- MIC (μg/mL) A. hydrophila [9, 20]: 12.5 µg/mL
- MIC (μg/mL) M. catarrhalis [10, 21]: 12.5 µg/mL
- MIC (μg/mL) C. diversus [11, 22]: 50 µg/mL

Substance: PRT1473 (SFLNCSLDNGGCTHYCLEEVGWRRCSCAPGYKLGDDLLQCH; listed as Homo sapiens)
- MIC against P. mirabilis ([1]; Proteus mirabilis, 10 h cultivation at 37° C.): 50 µg/mL
- MIC against E. cloacae ([2]; Enterobacter cloacae, 10 h cultivation at 37° C.): 12.5 µg/mL
- MIC against K. pneumonia ([3]; Klebsiella pneumonia, 10 h cultivation at 37° C.): 50 µg/mL
- MIC against P. aeruginosa ([4]; Pseudomonas aeruginosa, 10 h cultivation at 37° C.): 25 µg/mL
- MIC against E. coli BL21 [5, 17]: 25 µg/mL
- MIC against P. vulgaris ([6]; Proteus vulgaris, 10 h cultivation at 37° C.): 25 µg/mL
- MIC [7]: 12.5 µg/mL
- MIC against S. marcescens ([8]; Serratia marcescens, 10 h cultivation at 37° C.): 12.5 µg/mL
- MIC against A. hydrophila ([9]; Aeromonas hydrophila, 10 h cultivation at 37° C.): 50 µg/mL
- MIC against M. catarrhalis ([10]; Moraxella catarrhalis, 10 h cultivation at 37° C.): 25 µg/mL
- MIC against C. diversus ([11]; Citrobacter diversus, 10 h cultivation at 37° C.): 12.5 µg/mL

Substance: PRT413 (DVNECITGSHSCRLGESCINTVGSFRCQRDSSCGTGYELTEDNSCK; listed as Homo sapiens)
- MIC [1, 13]: 12.5 µg/mL
- MIC [2, 14]: 12.5 µg/mL
- MIC [3, 15]: 50 µg/mL
- MIC [4, 16]: 12.5 µg/mL
- MIC [5, 17]: 12.5 µg/mL
- MIC [6, 18]: 12.5 µg/mL
- MIC [7]: 12.5 µg/mL
- MIC [8, 19]: 12.5 µg/mL
- MIC [9, 20]: 50 µg/mL
- MIC [10, 21]: 50 µg/mL
- MIC [11, 22]: 12.5 µg/mL

From patent US9833497B2, “Human originated EGF domain proteins and use of the same” (CHENGDU SOURCEBIO LIMITED-LIABILITY COMPANY, priority 2013, dated 2017)
